Source: patent US9040502B2, “Anti-XDR-TB drug, anti-MDR-TB drug, and combination anti-tuberculosis drug” (priority 2008, dated 2015)
In brackets after ≈: the same amount, converted by molar mass. Where two headings read alike, the source gives them in different places.

Assays:
[1] = system: Mycobacterium tuberculosis XDR-TB (0306-0206); assay type: cell-based; conditions: Ratio Method
[2] = system: M. tuberculosis MDR (RFP, INH, KM, SM EB, TH); test: MIC, agar multiple dilution method (Test Example 2); assay type: cell-based; conditions: Mycobacterium tuberculosis, 336 h
[3] = system: M. tuberculosis XDR (RFP, INH, KM EB, TH, PAS, EVM, LVFX); test: as above; assay type: cell-based; conditions: Mycobacterium tuberculosis, 336 h
[4] = system: M. tuberculosis MDR (RFP, INH, KM EB, TH, PAS, EVM); test: as above; assay type: cell-based; conditions: Mycobacterium tuberculosis, 336 h
[5] = system: M. tuberculosis XDR-TB (0306-0206); assay type: in vivo, Mycobacterium tuberculosis in BALB/c mice; conditions: BALB/c mice, i.v. infection; s.c., 14 doses; CPZEN-45 6.3-200 mg/kg, SM 25-200 mg/kg; Day 30
[6] = system: M. tuberculosis MDR (RFP, INH); test: MIC, agar multiple dilution method (Test Example 2); assay type: cell-based; conditions: Mycobacterium tuberculosis, 336 h

Compound: CC[C@@H](CO)NCCN[C@@H](CC)CO [EB, ethambutol]
- Determination (drug sensitivity) ([1]; drug concentration 2.5 μg/mL): R

Compound: CCc1cc(C(N)=S)ccn1 [TH, ethionamide]
- Determination (drug sensitivity) ([1]; drug concentration 20 μg/mL): R

Compound: CCCCc1ccc(NC(=O)C2=CCN(C)[C@@H]([C@H](O[C@@H]3O[C@H](CN)[C@@H](O)[C@H]3O)[C@H]3O[C@@H](n4ccc(=O)[nH]c4=O)[C@H](O)[C@@H]3O)C(=O)N2C)cc1 [CPZEN-45, (S)-2-{[(2S,3R,4S,5R)-(5-aminomethyl-3,4-dihydroxyoxolan-2-yl)oxy][(2S,3S,4R,5R)-5-(2,4-dioxo-1,2,3,4-tetrahydropyrimidin-1-yl)-3,4-dihydroxyoxolan-2-yl]-(S)-methyl}-N-(4-butylphenyl)-1,4-dimethyl-3-oxo-1H-1,4-diazepine-5-carboxamide]
- MIC [2]: 6.25 µg/mL (≈ 9.07 µM)
- MIC [3]: 6.25 µg/mL (≈ 9.07 µM)
- MIC [4]: 6.25 µg/mL (≈ 9.07 µM)
- Antibacterial effects (number of tuberculosis bacteria in lungs, liver and spleen, FIGS. 3 to 5) [5]: antibacterial effects significantly higher than those of SM
- MIC [6]: 6.25 µg/mL (≈ 9.07 µM)

Compound: [H]/N=C(/N)N[C@H]1[C@H](O)[C@@H](O)[C@H](O[C@@H]2O[C@@H](C)[C@](O)(C=O)[C@H]2O[C@@H]2O[C@@H](CO)[C@H](O)[C@@H](O)[C@@H]2NC)[C@@H](N/C(N)=N\[H])[C@@H]1O [SM, streptomycin]
- Determination (drug sensitivity) ([1]; drug concentration 10 μg/mL): R
- Antibacterial effects (number of tuberculosis bacteria in lungs, liver and spleen, FIGS. 3 to 5) [5]: no antibacterial effects

Compound: NNC(=O)c1ccncc1 [INH, isonicotinic acid hydrazide]
- Determination (drug sensitivity) ([1]; drug concentration 1.0 μg/mL): R

Compound: enviomycin [EVM]
- Determination (drug sensitivity) ([1]; drug concentration 20 μg/mL): R

Compound: N[C@@H]1CON=C1O [CS, cycloserine]
- Determination (drug sensitivity) ([1]; drug concentration 30 μg/mL): S

Compound: NC[C@H]1O[C@H](O[C@H]2[C@H](O)[C@@H](O[C@H]3O[C@H](CO)[C@@H](O)[C@H](N)[C@H]3O)[C@H](N)C[C@@H]2N)[C@H](O)[C@@H](O)[C@@H]1O [KM, kanamycin]
- Determination (drug sensitivity) ([1]; drug concentration 20 μg/mL): R

Compound: CO[C@H]1/C=C/O[C@@]2(C)Oc3c(C)c(O)c4c(O)c(c(/C=N/N5CCN(C)CC5)c(O)c4c3C2=O)NC(=O)/C(C)=C\C=C\[C@H](C)[C@H](O)[C@@H](C)[C@@H](O)[C@@H](C)[C@H](OC(C)=O)[C@@H]1C [RFP, rifampicin]
- Determination (drug sensitivity) ([1]; drug concentration 40 μg/mL): R
- MIC [2]: > 40 µg/mL
- MIC [3]: > 40 µg/mL
- MIC [4]: > 40 µg/mL
- MIC [6]: > 40 µg/mL

Compound: C[C@H]1COc2c(N3CCN(C)CC3)c(F)cc3c(=O)c(C(=O)O)cn1c23 [LVFX, levofloxacin]
- Determination (drug sensitivity) ([1]; drug concentration 1.0 μg/mL): R

Compound: Nc1ccc(C(=O)O)c(O)c1 [PAS, para-amino-salicylic acid]
- Determination (drug sensitivity) ([1]; drug concentration 0.5 μg/mL): R
